Numbers after ± are expanded uncertainties.
Legend:
[1] = Liquid; for viscosity: Falling or rolling sphere viscometry; for mass density: Vibrating tube method
[2] = refractive index (Na D-line) (dimensionless); conditions: 298.15 K; 100 kPa; Liquid; Standard Abbe refractometry
[3] = xn = mol fraction of the nth substance listed; conditions: 298.15 K; 100 kPa; Liquid; Falling or rolling sphere viscometry; x1 = 1
[4] = refractive index (Na D-line) (dimensionless); xn = mol fraction of the nth substance listed; conditions: 298.15 K; 100 kPa; Liquid; Standard Abbe refractometry; x1 = 1

In the case of O [water], the viscosity ([1]; 298.15 K, 100 kPa) is reported as 0.89 ± 0.02 mPa·s and the refractive index [2] is reported as 1.33252 ± 0.00035.

Work on CCn1cc[n+](C)c1.N#C[C-](C#N)C#N [1-ethyl-3-methyl-1H-imidazolium tricyanomethanide] yielded a viscosity ([1]; 288.15 K, 101.33 kPa) of 19.9 ± 0.43 mPa·s, a mass density ([1]; 288.15 K, 101.33 kPa) of 1088.49 ± 0.15 kg/m3 and a viscosity ([1]; 293.15 K, 101.33 kPa) of 16.54 ± 0.35 mPa·s. For the same compound, the mass density ([1]; 293.15 K, 101.33 kPa) was 1084.93 ± 0.15 kg/m3, the viscosity ([1]; 298.15 K, 101.33 kPa) was 14 ± 0.3 mPa·s and the mass density ([1]; 298.15 K, 101.33 kPa) was 1081.38 ± 0.15 kg/m3. The viscosity ([1]; 303.15 K, 101.33 kPa) was 11.99 ± 0.26 mPa·s, the mass density ([1]; 303.15 K, 101.33 kPa) was 1077.84 ± 0.15 kg/m3 and the viscosity ([1]; 308.15 K, 101.33 kPa) was 10.32 ± 0.22 mPa·s. The mass density ([1]; 308.15 K, 101.33 kPa) was 1074.33 ± 0.15 kg/m3, the viscosity ([1]; 313.15 K, 101.33 kPa) was 8.9 ± 0.19 mPa·s and the mass density ([1]; 313.15 K, 101.33 kPa) was 1070.83 ± 0.15 kg/m3. It also gave a viscosity ([1]; 318.15 K, 101.33 kPa) of 7.82 ± 0.17 mPa·s, a mass density ([1]; 318.15 K, 101.33 kPa) of 1067.35 ± 0.14 kg/m3 and a refractive index [2] of 1.51227 ± 0.00036.

Work on O [water] + CCn1cc[n+](C)c1.N#C[C-](C#N)C#N yielded a viscosity [3] of 0.89 ± 0.02 mPa·s and a refractive index [4] of 1.33252 ± 0.00035.

Source: the NIST ThermoML archive (doi:10.1016/j.jct.2015.05.011)
